Measured values from patent US20230085307A1, “PYRIDAZINONE COMPOUND AND HERBICIDE” (NISSAN CHEMICAL CORPORATION, priority 2019, published 2023).

Columns and labels:
late watergrass = assay: Test Example 1: herbicidal activity, application before weed generation under submerged conditions (Table 16, symbol A); format: in vivo, late watergrass (Echinochloa oryzicola)
In short: (§1)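 Alluvial soil was flooded to 4 cm depth, weed seeds were sown mixed and 2.5-leaf rice seedlings were transplanted. On sowing day, the compound's emulsion, diluted in water to a set dose, was applied to the water surface. Plants grew at 25–30 °C and were scored 0–5 after three weeks.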

Japanese bulrush = assay: Test Example 1: herbicidal activity, application before weed generation under submerged conditions (Table 16, symbol B); format: in vivo, Japanese bulrush (Schoenoplectus juncoides)
In short: as §1

oval-leafed pondweed = assay: Test Example 1: herbicidal activity, application before weed generation under submerged conditions (Table 16, symbol C); format: in vivo, oval-leafed pondweed (Monochoria vaginalis)
In short: as §1

barnyard grass [1] = assay: Test Example 3: herbicidal effect by foliage application, Wagner pot (Table 18, symbol H); format: in vivo, barnyard grass (Echinochloa crus-galli)
In short: (§2)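 Plants were sown in alluvial soil held under 0.1–0.5 cm standing water and grown 14 days in a greenhouse at 25–30 °C. An emulsifiable formulation, water-diluted to the set dose, was then sprayed onto the foliage, and effects were scored three weeks later using previously defined criteria.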

Chinese sprangletop = assay: Test Example 3: herbicidal effect by foliage application, Wagner pot (Table 18, symbol D); format: in vivo, chinese sprangletop (Leptochloa chinensis)
In short: as §2

rice flat sedge = assay: Test Example 3: herbicidal effect by foliage application, Wagner pot (Table 18, symbol E); format: in vivo, rice flat sedge (Cyperus iria)
In short: as §2

southern crabgrass [2] = assay: Test Example 4: herbicidal effect by soil treatment (Table 19, symbol F); format: in vivo, southern crabgrass (Digitaria ciliaris); details: amount of applied herbicide 320 g/ha
In short: (§3)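 In this soil treatment, the formulated compound reached the seeds only through the soil: seeds were buried about 1.5 cm deep in sterilized diluvial soil, then the diluted emulsion was sprayed over the surface. After three weeks at 25° C. to 30° C. in a greenhouse, effects were graded on criteria from an earlier test.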

green foxtail [3] = assay: Test Example 4: herbicidal effect by soil treatment (Table 19, symbol G); format: in vivo, green foxtail (Setaria viridis); details: amount of applied herbicide 320 g/ha
In short: as §3

barnyard grass [4] = assay: Test Example 4: herbicidal effect by soil treatment (Table 19, symbol H); format: in vivo, barnyard grass (Echinochloa crus-galli); details: amount of applied herbicide 320 g/ha
In short: as §3

wild oat [5] = assay: Test Example 4: herbicidal effect by soil treatment (Table 19, symbol I); format: in vivo, wild oat (Avena fatua); details: amount of applied herbicide 320 g/ha
In short: as §3

Italian ryegrass [6] = assay: Test Example 4: herbicidal effect by soil treatment (Table 19, symbol K); format: in vivo, Italian ryegrass (Lolium multiflorum); details: amount of applied herbicide 320 g/ha
In short: as §3

windgrass [7] = assay: Test Example 4: herbicidal effect by soil treatment (Table 19, symbol L); format: in vivo, windgrass (Apera spica-venti); details: amount of applied herbicide 320 g/ha
In short: as §3

velvetleaf [8] = assay: Test Example 4: herbicidal effect by soil treatment (Table 19, symbol M); format: in vivo, velvetleaf (Abutilon theophrasti); details: amount of applied herbicide 320 g/ha
In short: as §3

redroot pigweed [9] = assay: Test Example 4: herbicidal effect by soil treatment (Table 19, symbol N); format: in vivo, redroot pigweed (Amaranthus retroflexus); details: amount of applied herbicide 320 g/ha
In short: as §3

lambsquarters [10] = assay: Test Example 4: herbicidal effect by soil treatment (Table 19, symbol O); format: in vivo, lambsquarters (Chenopodium album); details: amount of applied herbicide 320 g/ha
In short: as §3

chickweed [11] = assay: Test Example 4: herbicidal effect by soil treatment (Table 19, symbol P); format: in vivo, common chickweed (Stellaria media); details: amount of applied herbicide 320 g/ha
In short: as §3

persian speedwell [12] = assay: Test Example 4: herbicidal effect by soil treatment (Table 19, symbol R); format: in vivo, Persian speedwell (Veronica persica); details: amount of applied herbicide 320 g/ha
In short: as §3

southern crabgrass [13] = assay: Test Example 5: herbicidal effect by foliage application, plastic box (Table 20, symbol F); format: in vivo, southern crabgrass (Digitaria ciliaris); details: evaluated three weeks after application
In short: (§4)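 Plants were sown into sterilized diluvial soil under about 1.5 cm cover and kept in a greenhouse at 25° C. to 30° C. Fourteen days on, foliage received an even spray of the diluted emulsion. Herbicidal or crop effect was judged three weeks afterwards.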

green foxtail [14] = assay: Test Example 5: herbicidal effect by foliage application, plastic box (Table 20, symbol G); format: in vivo, green foxtail (Setaria viridis); details: evaluated three weeks after application
In short: as §4

barnyard grass [15] = assay: Test Example 5: herbicidal effect by foliage application, plastic box (Table 20, symbol H); format: in vivo, barnyard grass (Echinochloa crus-galli); details: evaluated three weeks after application
In short: as §4

wild oat [16] = assay: Test Example 5: herbicidal effect by foliage application, plastic box (Table 20, symbol I); format: in vivo, wild oat (Avena fatua); details: evaluated three weeks after application
In short: as §4

blackgrass [17] = assay: Test Example 5: herbicidal effect by foliage application, plastic box (Table 20, symbol J); format: in vivo, blackgrass (Alopecurus myosuroides); details: evaluated three weeks after application
In short: as §4

Italian ryegrass [18] = assay: Test Example 5: herbicidal effect by foliage application, plastic box (Table 20, symbol K); format: in vivo, Italian ryegrass (Lolium multiflorum); details: evaluated three weeks after application
In short: as §4

windgrass [19] = assay: Test Example 5: herbicidal effect by foliage application, plastic box (Table 20, symbol L); format: in vivo, windgrass (Apera spica-venti); details: evaluated three weeks after application
In short: as §4

velvetleaf [20] = assay: Test Example 5: herbicidal effect by foliage application, plastic box (Table 20, symbol M); format: in vivo, velvetleaf (Abutilon theophrasti); details: evaluated three weeks after application
In short: as §4

redroot pigweed [21] = assay: Test Example 5: herbicidal effect by foliage application, plastic box (Table 20, symbol N); format: in vivo, redroot pigweed (Amaranthus retroflexus); details: evaluated three weeks after application
In short: as §4

lambsquarters [22] = assay: Test Example 5: herbicidal effect by foliage application, plastic box (Table 20, symbol O); format: in vivo, lambsquarters (Chenopodium album); details: evaluated three weeks after application
In short: as §4

chickweed [23] = assay: Test Example 5: herbicidal effect by foliage application, plastic box (Table 20, symbol P); format: in vivo, common chickweed (Stellaria media); details: evaluated three weeks after application
In short: as §4

persian speedwell [24] = assay: Test Example 5: herbicidal effect by foliage application, plastic box (Table 20, symbol R); format: in vivo, Persian speedwell (Veronica persica); details: evaluated three weeks after application
In short: as §4

blackgrass [25] = assay: Test Example 4: herbicidal effect by soil treatment (Table 19, symbol J); format: in vivo, blackgrass (Alopecurus myosuroides); details: amount of applied herbicide 320 g/ha
In short: as §3

[26] = amount of applied herbicide 320 g/ha
[27] = amount of applied herbicide 320 g/ha, foliage application after 14-day growth

CCCC(=O)Oc1c(C)nn(C)c(=O)c1-c1c(-c2cccc(OC(F)(F)F)c2)sc2ccc(F)cc12 [2-237]
Herbicidal effect on A: late watergrass (grade 0-5) (late watergrass; 320 g/ha applied herbicide): 3 (Herbicidal rate of 40% or more and less than 70%)
Herbicidal effect on B: Japanese bulrush (grade 0-5) (Japanese bulrush; 320 g/ha applied herbicide): 0 (Herbicidal rate of 5% or less (almost no effect))
Herbicidal effect on C: oval-leafed pondweed (grade 0-5) (oval-leafed pondweed; 320 g/ha applied herbicide): 0 (Herbicidal rate of 5% or less (almost no effect))
herbicidal effect on H: barnyard grass (barnyard grass [1]; [26]): 3 (Herbicidal rate of 40% or more and less than 70%)
herbicidal effect on D: Chinese sprangletop (Chinese sprangletop; [26]): 4 (Herbicidal rate of 70% or more and less than 90%)
herbicidal effect on E: rice flat sedge (rice flat sedge; [26]): 5 (Herbicidal rate of 90% or more (almost completely withered))
herbicidal effect on F: southern crabgrass (southern crabgrass [2]): 0 (Herbicidal rate of 5% or less (almost no effect))
herbicidal effect on G: green foxtail (green foxtail [3]): 0 (Herbicidal rate of 5% or less (almost no effect))
herbicidal effect on H: barnyard grass (barnyard grass [4]): 0 (Herbicidal rate of 5% or less (almost no effect))
herbicidal effect on I: wild oat (wild oat [5]): 0 (Herbicidal rate of 5% or less (almost no effect))
herbicidal effect on K: Italian ryegrass (Italian ryegrass [6]): 0 (Herbicidal rate of 5% or less (almost no effect))
herbicidal effect on L: windgrass (windgrass [7]): 0 (Herbicidal rate of 5% or less (almost no effect))
herbicidal effect on M: velvetleaf (velvetleaf [8]): 0 (Herbicidal rate of 5% or less (almost no effect))
herbicidal effect on N: redroot pigweed (redroot pigweed [9]): 0 (Herbicidal rate of 5% or less (almost no effect))
herbicidal effect on O: lambsquarters (lambsquarters [10]): 0 (Herbicidal rate of 5% or less (almost no effect))
herbicidal effect on P: chickweed (chickweed [11]): 5 (Herbicidal rate of 90% or more (almost completely withered))
herbicidal effect on R: persian speedwell (persian speedwell [12]): 0 (Herbicidal rate of 5% or less (almost no effect))
herbicidal effect on F: southern crabgrass (criteria 0-5) (southern crabgrass [13]; foliage application, 320 g/ha): 0 (Herbicidal rate of 5% or less (almost no effect))
herbicidal effect on G: green foxtail (criteria 0-5) (green foxtail [14]; foliage application, 320 g/ha): 0 (Herbicidal rate of 5% or less (almost no effect))
herbicidal effect on H: barnyard grass (criteria 0-5) (barnyard grass [15]; foliage application, 320 g/ha): 0 (Herbicidal rate of 5% or less (almost no effect))
herbicidal effect on I: wild oat (criteria 0-5) (wild oat [16]; foliage application, 320 g/ha): 0 (Herbicidal rate of 5% or less (almost no effect))
herbicidal effect on J: blackgrass (criteria 0-5) (blackgrass [17]; foliage application, 320 g/ha): 0 (Herbicidal rate of 5% or less (almost no effect))
herbicidal effect on K: Italian ryegrass (criteria 0-5) (Italian ryegrass [18]; foliage application, 320 g/ha): 0 (Herbicidal rate of 5% or less (almost no effect))
herbicidal effect on L: windgrass (criteria 0-5) (windgrass [19]; foliage application, 320 g/ha): 0 (Herbicidal rate of 5% or less (almost no effect))
herbicidal effect on M: velvetleaf (criteria 0-5) (velvetleaf [20]; foliage application, 320 g/ha): 3 (Herbicidal rate of 40% or more and less than 70%)
herbicidal effect on N: redroot pigweed (criteria 0-5) (redroot pigweed [21]; foliage application, 320 g/ha): 5 (Herbicidal rate of 90% or more (almost completely withered))
herbicidal effect on O: lambsquarters (criteria 0-5) (lambsquarters [22]; foliage application, 320 g/ha): 2 (Herbicidal rate of 20% or more and less than 40%)
herbicidal effect on P: chickweed (criteria 0-5) (chickweed [23]; foliage application, 320 g/ha): 5 (Herbicidal rate of 90% or more (almost completely withered))
herbicidal effect on R: persian speedwell (criteria 0-5) (persian speedwell [24]; foliage application, 320 g/ha): 3 (Herbicidal rate of 40% or more and less than 70%)

CCOc1cc(F)ccc1-c1sc2cc(F)c(F)cc2c1-c1c(O)c(C)nn(C)c1=O [5-031]
Herbicidal effect, A: late watergrass (late watergrass; [26]): 2 (Herbicidal rate of 20% or more and less than 40%)
Herbicidal effect, B: Japanese bulrush (Japanese bulrush; [26]): 0 (Herbicidal rate of 5% or less (almost no effect))
Herbicidal effect, C: oval-leafed pondweed (oval-leafed pondweed; [26]): 0 (Herbicidal rate of 5% or less (almost no effect))
herbicidal effect on barnyard grass (H) (barnyard grass [1]; 320 g/ha): 5 (Herbicidal rate of 90% or more (almost completely withered))
herbicidal effect on Chinese sprangletop (D) (Chinese sprangletop; 320 g/ha): 4 (Herbicidal rate of 70% or more and less than 90%)
herbicidal effect on rice flat sedge (E) (rice flat sedge; 320 g/ha): 5 (Herbicidal rate of 90% or more (almost completely withered))
F: southern crabgrass, herbicidal effect grade (southern crabgrass [2]): 4 (Herbicidal rate of 70% or more and less than 90%)
G: green foxtail, herbicidal effect grade (green foxtail [3]): 5 (Herbicidal rate of 90% or more (almost completely withered))
H: barnyard grass, herbicidal effect grade (barnyard grass [4]): 3 (Herbicidal rate of 40% or more and less than 70%)
I: wild oat, herbicidal effect grade (wild oat [5]): 1 (Herbicidal rate of 5% or more and less than 20%)
J: blackgrass, herbicidal effect grade (blackgrass [25]): 3 (Herbicidal rate of 40% or more and less than 70%)
K: Italian ryegrass, herbicidal effect grade (Italian ryegrass [6]): 0 (Herbicidal rate of 5% or less (almost no effect))
L: windgrass, herbicidal effect grade (windgrass [7]): 5 (Herbicidal rate of 90% or more (almost completely withered))
M: velvetleaf, herbicidal effect grade (velvetleaf [8]): 4 (Herbicidal rate of 70% or more and less than 90%)
N: redroot pigweed, herbicidal effect grade (redroot pigweed [9]): 5 (Herbicidal rate of 90% or more (almost completely withered))
O: lambsquarters, herbicidal effect grade (lambsquarters [10]): 5 (Herbicidal rate of 90% or more (almost completely withered))
P: chickweed, herbicidal effect grade (chickweed [11]): 3 (Herbicidal rate of 40% or more and less than 70%)
Herbicidal effect by foliage application, F: southern crabgrass (southern crabgrass [13]; [27]): 5 (Herbicidal rate of 90% or more (almost completely withered))
Herbicidal effect by foliage application, G: green foxtail (green foxtail [14]; [27]): 5 (Herbicidal rate of 90% or more (almost completely withered))
Herbicidal effect by foliage application, H: barnyard grass (barnyard grass [15]; [27]): 5 (Herbicidal rate of 90% or more (almost completely withered))
Herbicidal effect by foliage application, I: wild oat (wild oat [16]; [27]): 4 (Herbicidal rate of 70% or more and less than 90%)
Herbicidal effect by foliage application, J: blackgrass (blackgrass [17]; [27]): 5 (Herbicidal rate of 90% or more (almost completely withered))
Herbicidal effect by foliage application, K: Italian ryegrass (Italian ryegrass [18]; [27]): 2 (Herbicidal rate of 20% or more and less than 40%)
Herbicidal effect by foliage application, L: windgrass (windgrass [19]; [27]): 5 (Herbicidal rate of 90% or more (almost completely withered))
Herbicidal effect by foliage application, M: velvetleaf (velvetleaf [20]; [27]): 5 (Herbicidal rate of 90% or more (almost completely withered))
Herbicidal effect by foliage application, N: redroot pigweed (redroot pigweed [21]; [27]): 5 (Herbicidal rate of 90% or more (almost completely withered))
Herbicidal effect by foliage application, O: lambsquarters (lambsquarters [22]; [27]): 5 (Herbicidal rate of 90% or more (almost completely withered))
Herbicidal effect by foliage application, P: chickweed (chickweed [23]; [27]): 5 (Herbicidal rate of 90% or more (almost completely withered))
Herbicidal effect by foliage application, R: persian speedwell (persian speedwell [24]; [27]): 5 (Herbicidal rate of 90% or more (almost completely withered))
